Assay results from PMC5218480 (PLoS ONE, 2017).

System: MV-4-11 cells
Test: Gene expression microarray analysis (Affymetrix PrimeView) and GSEA
Format: cell-based, human
Parameters: RFU PODN (11730768_x_at) / Fold change /veh PODN (11730768_x_at) / RFU LINC00158 (11744669_a_at) / Fold change /veh LINC00158 (11744669_a_at) / RFU DUSP10 (11751237_a_at) / Fold change /veh DUSP10 (11751237_a_at) / RFU ID3 (11757404_x_at) / Fold change /veh ID3 (11757404_x_at) / RFU PLEKHG5 (11737974_s_at) / Fold change /veh PLEKHG5 (11737974_s_at) / RFU LRRC4B (11730491_at) / Fold change /veh LRRC4B (11730491_at) / RFU GIMAP4 (11747438_a_at) / Fold change /veh GIMAP4 (11747438_a_at) / RFU KRT8 (11758183_x_at) / Fold change /veh KRT8 (11758183_x_at) / RFU CNN1 (11734310_a_at) / Fold change /veh CNN1 (11734310_a_at) / RFU VPS37D (11726825_at) / Fold change /veh VPS37D (11726825_at) / RFU C10orf10 (11716522_x_at) / Fold change /veh C10orf10 (11716522_x_at) / RFU KIR2DL2 /// KIR2DL4 /// KIR2DL5A /// KIR2DL5B /// KIR2DS1 /// KIR2DS2 /// KIR2DS3 /// KIR2DS4 /// KIR3DL3 /// KIR3DL3 /// KIR3DS1 (11738374_at) / Fold change /veh KIR2DL2 /// KIR2DL4 /// KIR2DL5A /// KIR2DL5B /// KIR2DS1 /// KIR2DS2 /// KIR2DS3 /// KIR2DS4 /// KIR3DL3 /// KIR3DL3 /// KIR3DS1 (11738374_at) / RFU C1QL1 (11718748_at) / Fold change /veh C1QL1 (11718748_at) / RFU TMPRSS4 (11747572_a_at) / Fold change /veh TMPRSS4 (11747572_a_at) / RFU HAMP (11756126_x_at) / Fold change /veh HAMP (11756126_x_at) / RFU RNFT2 (11725882_a_at) / Fold change /veh RNFT2 (11725882_a_at) / RFU NR4A2 (11747474_a_at) / Fold change /veh NR4A2 (11747474_a_at) / RFU ABCC12 (11746883_a_at) / Fold change /veh ABCC12 (11746883_a_at) / RFU TMEM136 (11760407_x_at) / Fold change /veh TMEM136 (11760407_x_at) / RFU CLDN22 /// WWC2 (11732394_at) / Fold change /veh CLDN22 /// WWC2 (11732394_at) / RFU HLA-DPB1 (11760878_x_at) / Fold change /veh HLA-DPB1 (11760878_x_at) / RFU SPINT1 (11716480_a_at) / Fold change /veh SPINT1 (11716480_a_at) / RFU GAP43 (11754022_s_at) / Fold change /veh GAP43 (11754022_s_at) / RFU A4GNT (11735810_at) / Fold change /veh A4GNT (11735810_at) / RFU PRB3 (11715151_x_at) / Fold change /veh PRB3 (11715151_x_at) / RFU TUBB4B (11761932_at) / Fold change /veh TUBB4B (11761932_at) / RFU CAPN14 (11732068_a_at) / Fold change /veh CAPN14 (11732068_a_at) / RFU TMCC2 (11721928_a_at) / Fold change /veh TMCC2 (11721928_a_at) / RFU IRGQ (11745062_a_at) / Fold change /veh IRGQ (11745062_a_at) / RFU FAM174B (11720279_a_at) / Fold change /veh FAM174B (11720279_a_at) / RFU TMPRSS4 (11748680_a_at) / Fold change /veh TMPRSS4 (11748680_a_at) / RFU FAM212B (11763350_a_at) / Fold change /veh FAM212B (11763350_a_at) / RFU PLEKHG5 (11743358_a_at) / Fold change /veh PLEKHG5 (11743358_a_at) / RFU ZSCAN30 (11745921_a_at) / Fold change /veh ZSCAN30 (11745921_a_at) / RFU CMKLR1 (11741424_a_at) / Fold change /veh CMKLR1 (11741424_a_at) / RFU LOC101060620 /// MAPK8IP1 (11723275_at) / Fold change /veh LOC101060620 /// MAPK8IP1 (11723275_at) / RFU SPTSSB (11747773_x_at) / Fold change /veh SPTSSB (11747773_x_at) / RFU PRSS12 (11739890_at) / Fold change /veh PRSS12 (11739890_at) / RFU BIN1 (11741810_x_at) / Fold change /veh BIN1 (11741810_x_at) / RFU WNT11 (11732464_a_at) / Fold change /veh WNT11 (11732464_a_at) / RFU C10orf10 (11716521_a_at) / Fold change /veh C10orf10 (11716521_a_at) / RFU C5orf56 (11738089_at) / Fold change /veh C5orf56 (11738089_at) / RFU CYB561 (11721691_x_at) / Fold change /veh CYB561 (11721691_x_at) / RFU ANKRD19P (11752326_a_at) / Fold change /veh ANKRD19P (11752326_a_at) / RFU OR2T12 /// OR2T33 /// OR2T8 (11738714_s_at) / Fold change /veh OR2T12 /// OR2T33 /// OR2T8 (11738714_s_at) / RFU VCAN (11748164_a_at) / Fold change /veh VCAN (11748164_a_at) / RFU JSRP1 (11732532_at) / Fold change /veh JSRP1 (11732532_at) / RFU KRTAP10-11 (11738290_x_at) / Fold change /veh KRTAP10-11 (11738290_x_at) / RFU MYO3A (11730013_a_at) / Fold change /veh MYO3A (11730013_a_at) / RFU EBF3 (11725865_a_at) / Fold change /veh EBF3 (11725865_a_at) / RFU CAMK2N1 (11719241_x_at) / Fold change /veh CAMK2N1 (11719241_x_at) / RFU C5orf56 (11738088_a_at) / Fold change /veh C5orf56 (11738088_a_at) / RFU OLFML3 (11715873_a_at) / Fold change /veh OLFML3 (11715873_a_at) / RFU LOC100653217 /// NTM (11731650_a_at) / Fold change /veh LOC100653217 /// NTM (11731650_a_at) / RFU MAPK11 (11762145_a_at) / Fold change /veh MAPK11 (11762145_a_at) / RFU FIZ1 (11724087_x_at) / Fold change /veh FIZ1 (11724087_x_at) / RFU OASL (11726364_x_at) / Fold change /veh OASL (11726364_x_at) / RFU SOX15 (11748057_x_at) / Fold change /veh SOX15 (11748057_x_at) / RFU CD79A (11719716_a_at) / Fold change /veh CD79A (11719716_a_at) / RFU HIST1H1D (11736915_at) / Fold change /veh HIST1H1D (11736915_at) / RFU CASKIN2 (11723855_a_at) / Fold change /veh CASKIN2 (11723855_a_at) / RFU LOC730098 (11760151_x_at) / Fold change /veh LOC730098 (11760151_x_at) / RFU OR4N2 (11742367_at) / Fold change /veh OR4N2 (11742367_at) / RFU PRRT2 (11749266_a_at) / Fold change /veh PRRT2 (11749266_a_at) / RFU SNX32 (11753110_a_at) / Fold change /veh SNX32 (11753110_a_at) / RFU CDHR5 (11726645_a_at) / Fold change /veh CDHR5 (11726645_a_at) / RFU RCAN1 (11760418_a_at) / Fold change /veh RCAN1 (11760418_a_at) / RFU FAM167A (11723789_a_at) / Fold change /veh FAM167A (11723789_a_at) / RFU FAM26E (11764081_at) / Fold change /veh FAM26E (11764081_at) / RFU ISYNA1 (11749810_s_at) / Fold change /veh ISYNA1 (11749810_s_at) / RFU ACY1 (11761880_at) / Fold change /veh ACY1 (11761880_at) / RFU 11764098_at / Fold change /veh 11764098_at / RFU SAMD14 (11745864_x_at) / Fold change /veh SAMD14 (11745864_x_at) / RFU NPB (11741838_a_at) / Fold change /veh NPB (11741838_a_at) / RFU TMPRSS6 (11731388_a_at) / Fold change /veh TMPRSS6 (11731388_a_at) / RFU KRTAP10-2 (11738614_at) / Fold change /veh KRTAP10-2 (11738614_at) / RFU ARHGAP8 /// PRR5-ARHGAP8 (11727945_x_at) / Fold change /veh ARHGAP8 /// PRR5-ARHGAP8 (11727945_x_at) / RFU KRTAP5-7 /// NADSYN1 (11734609_at) / Fold change /veh KRTAP5-7 /// NADSYN1 (11734609_at) / RFU RASL12 (11751679_a_at) / Fold change /veh RASL12 (11751679_a_at) / RFU CDKN2B (11736163_a_at) / Fold change /veh CDKN2B (11736163_a_at) / RFU PRF1 (11729649_at) / Fold change /veh PRF1 (11729649_at) / RFU, ZNF638 /// ZNF638-IT1 / Fold change vs veh, ZNF638 /// ZNF638-IT1 / RFU, PANK3 / Fold change vs veh, PANK3 / RFU, SH3YL1 / Fold change vs veh, SH3YL1 / RFU, ZEB2 / Fold change vs veh, ZEB2 / RFU, NRIP1 / Fold change vs veh, NRIP1 / RFU, PTTG1IP / Fold change vs veh, PTTG1IP / RFU, CAPN2 / Fold change vs veh, CAPN2 / RFU, MED14 / Fold change vs veh, MED14 / RFU, SNORA58 / Fold change vs veh, SNORA58 / RFU, C1orf63 / Fold change vs veh, C1orf63 / RFU, LRRFIP1 / Fold change vs veh, LRRFIP1 / RFU, NDUFAF7 / Fold change vs veh, NDUFAF7 / RFU, SLC12A2 / Fold change vs veh, SLC12A2 / RFU, IBTK / Fold change vs veh, IBTK / RFU, ESF1 / Fold change vs veh, ESF1 / Fold change vs veh, TMEM50B / RFU, TAOK1 / Fold change vs veh, TAOK1 / RFU, ACBD3 / Fold change vs veh, ACBD3 / RFU, TMA16 / Fold change vs veh, TMA16 / RFU, RWDD3 / Fold change vs veh, RWDD3 / RFU, BCAT1 / Fold change vs veh, BCAT1 / RFU, EDEM3 / Fold change vs veh, EDEM3 / RFU, TMEM33 / Fold change vs veh, TMEM33 / RFU, WDR75 / Fold change vs veh, WDR75 / RFU, AHCTF1 / Fold change vs veh, AHCTF1 / RFU, TFRC / Fold change vs veh, TFRC / RFU, ZDHHC17 / Fold change vs veh, ZDHHC17 / RFU, NOM1 / Fold change vs veh, NOM1 / RFU, ARL8B / Fold change vs veh, ARL8B / RFU, ZBTB11 / Fold change vs veh, ZBTB11 / RFU, TAMM41 / Fold change vs veh, TAMM41 / RFU, KIAA1704 /// LOC100996395 / Fold change vs veh, KIAA1704 /// LOC100996395 / RFU, ING1 / Fold change vs veh, ING1 / RFU, TRMT61B / Fold change vs veh, TRMT61B / RFU, FUBP3 / Fold change vs veh, FUBP3 / RFU, TP53 / Fold change vs veh, TP53 / RFU, TNKS2 / Fold change vs veh, TNKS2 / RFU, ZFP14 / Fold change vs veh, ZFP14 / RFU, ACTR2 / Fold change vs veh, ACTR2 / RFU, PPP3R1 / Fold change vs veh, PPP3R1 / RFU, PIK3R1 / Fold change vs veh, PIK3R1 / RFU, HNRNPA1 / Fold change vs veh, HNRNPA1 / RFU, RNF170 / Fold change vs veh, RNF170 / RFU, ZNF28 / Fold change vs veh, ZNF28 / RFU, RNGTT / Fold change vs veh, RNGTT / RFU, OGT / Fold change vs veh, OGT / RFU, BRD1 / Fold change vs veh, BRD1 / RFU, MARS / Fold change vs veh, MARS / RFU, ZNF655 / Fold change vs veh, ZNF655 / RFU, FAHD1 / Fold change vs veh, FAHD1 / RFU, BDP1 / Fold change vs veh, BDP1 / RFU, LRRCC1 / Fold change vs veh, LRRCC1 / RFU, ARID1A / Fold change vs veh, ARID1A / RFU, ZNF146 / Fold change vs veh, ZNF146 / RFU, ZNF330 / Fold change vs veh, ZNF330 / RFU, GPN3 / Fold change vs veh, GPN3 / RFU, C9orf123 / Fold change vs veh, C9orf123 / RFU, N4BP2L2 / Fold change vs veh, N4BP2L2 / RFU, ARFIP1 / Fold change vs veh, ARFIP1 / RFU, FAM179B / Fold change vs veh, FAM179B / RFU, BCL10 / Fold change vs veh, BCL10 / RFU, UHRF1BP1L / Fold change vs veh, UHRF1BP1L / RFU, BET1 / Fold change vs veh, BET1 / RFU, CNOT2 / Fold change vs veh, CNOT2 / RFU, ZNF268 / Fold change vs veh, ZNF268 / Fold change vs veh, ZNF507 / RFU, DGCR2 / Fold change vs veh, DGCR2 / RFU, WDSUB1 / Fold change vs veh, WDSUB1 / Fold change vs veh, HSP90B1 /// MIR3652 / RFU, ADSS / Fold change vs veh, ADSS / RFU, GK / Fold change vs veh, GK / RFU, ZNF148 / Fold change vs veh, ZNF148 / RFU, TAF9 / Fold change vs veh, TAF9 / RFU, SLC1A5 / Fold change vs veh, SLC1A5 / RFU, SLMO2 / Fold change vs veh, SLMO2 / RFU, ABCC4 / Fold change vs veh, ABCC4 / RFU, LOC101060439 /// RAP1B / Fold change vs veh, LOC101060439 /// RAP1B / RFU, RFX7 / Fold change vs veh, RFX7 / RFU, GTPBP10 / Fold change vs veh, GTPBP10 / RFU, CNEP1R1 / Fold change vs veh, CNEP1R1 / RFU, BIVM-ERCC5 /// ERCC5 / Fold change vs veh, BIVM-ERCC5 /// ERCC5 / RFU, ILF3 / Fold change vs veh, ILF3 / RFU 11762660_at / Fold change /veh 11762660_at / RFU VCAN (11757783_s_at) / Fold change /veh VCAN (11757783_s_at) / RFU DDX43 (11728927_at) / Fold change /veh DDX43 (11728927_at) / RFU KRT8 (11758188_x_at) / Fold change /veh KRT8 (11758188_x_at) / RFU NKD1 (11759106_at) / Fold change /veh NKD1 (11759106_at) / RFU SRD5A1 (11742802_a_at) / Fold change /veh SRD5A1 (11742802_a_at) / RFU TPSAB1 /// TPSB2 (11721975_s_at) / Fold change /veh TPSAB1 /// TPSB2 (11721975_s_at) / RFU GSTM3 (11746129_a_at) / Fold change /veh GSTM3 (11746129_a_at) / RFU IL23R (11737362_x_at) / Fold change /veh IL23R (11737362_x_at) / RFU TMEM51 (11727254_a_at) / Fold change /veh TMEM51 (11727254_a_at) / RFU PIWIL2 (11732686_x_at) / Fold change /veh PIWIL2 (11732686_x_at) / RFU ORM1 (11744905_x_at) / Fold change /veh ORM1 (11744905_x_at) / RFU CCDC152 (11743942_at) / Fold change /veh CCDC152 (11743942_at) / RFU ECM1 (11717891_a_at) / Fold change /veh ECM1 (11717891_a_at) / RFU IL23R (11748794_a_at) / Fold change /veh IL23R (11748794_a_at) / RFU TNFAIP8L3 (11732012_x_at) / Fold change /veh TNFAIP8L3 (11732012_x_at) / RFU MBOAT4 (11741988_at) / Fold change /veh MBOAT4 (11741988_at) / RFU 11764193_at / Fold change /veh 11764193_at / RFU TMEM53 (11763286_at) / Fold change /veh TMEM53 (11763286_at) / RFU MAGEB2 (11727129_at) / Fold change /veh MAGEB2 (11727129_at) / RFU TMEM200A (11744735_a_at) / Fold change /veh TMEM200A (11744735_a_at) / RFU CCDC152 (11751479_a_at) / Fold change /veh CCDC152 (11751479_a_at) / RFU FAM211A (11726209_a_at) / Fold change /veh FAM211A (11726209_a_at) / RFU RGS16 (11746705_a_at) / Fold change /veh RGS16 (11746705_a_at) / RFU VCAN (11755009_s_at) / Fold change /veh VCAN (11755009_s_at) / RFU RHOB (11743442_s_at) / Fold change /veh RHOB (11743442_s_at) / RFU RGS16 (11720943_a_at) / Fold change /veh RGS16 (11720943_a_at) / RFU RGS16 (11720944_at) / Fold change /veh RGS16 (11720944_at) / RFU, VPS4B / Fold change vs veh, VPS4B / RFU, CREB1 / Fold change vs veh, CREB1 / RFU, DNAJC13 / Fold change vs veh, DNAJC13 / RFU, GNAQ / Fold change vs veh, GNAQ / RFU, CDK5R1 / Fold change vs veh, CDK5R1 / RFU, ZRANB3 / Fold change vs veh, ZRANB3 / RFU, CUL4A / Fold change vs veh, CUL4A / RFU, CCNY / Fold change vs veh, CCNY / RFU, UFL1 / Fold change vs veh, UFL1 / RFU, COG3 / Fold change vs veh, COG3 / RFU, DIAPH2 / Fold change vs veh, DIAPH2 / RFU, SKA2 / Fold change vs veh, SKA2 / RFU, AFF3 / Fold change vs veh, AFF3 / RFU, LMF1 / Fold change vs veh, LMF1 / RFU, IPO11 / Fold change vs veh, IPO11 / RFU, DFFB / Fold change vs veh, DFFB / RFU, FOXP1 / Fold change vs veh, FOXP1 / RFU, CARD8 / Fold change vs veh, CARD8 / RFU, STRN3 / Fold change vs veh, STRN3 / RFU, ADK / Fold change vs veh, ADK / RFU, RASSF2 / Fold change vs veh, RASSF2 / RFU, WIPF1 / Fold change vs veh, WIPF1 / RFU, LARP1B / Fold change vs veh, LARP1B / RFU, RASA1 / Fold change vs veh, RASA1 / RFU, RB1 / Fold change vs veh, RB1 / RFU, PPFIA1 / Fold change vs veh, PPFIA1 / RFU, MAT2A / Fold change vs veh, MAT2A / RFU, CCT5 / Fold change vs veh, CCT5 / RFU, WDR92 / Fold change vs veh, WDR92 / RFU, CUX1 / Fold change vs veh, CUX1 / RFU, TTC7A / Fold change vs veh, TTC7A / RFU, TMEM135 / Fold change vs veh, TMEM135 / RFU, DEPTOR / Fold change vs veh, DEPTOR / RFU, CPM / Fold change vs veh, CPM / RFU, DNAJB6 / Fold change vs veh, DNAJB6 / RFU, CACNA2D3 / Fold change vs veh, CACNA2D3 / RFU, DTX4 / Fold change vs veh, DTX4 / RFU, TFCP2 / Fold change vs veh, TFCP2 / RFU, GMCL1 /// GMCL1P1 / Fold change vs veh, GMCL1 /// GMCL1P1 / RFU, AEBP2 / Fold change vs veh, AEBP2 / RFU, SNHG1 /// SNORD22 /// SNORD25 /// SNORD26 /// SNORD27 /// SNORD28 /// SNORD29 /// SNORD31 / Fold change vs veh, SNHG1 /// SNORD22 /// SNORD25 /// SNORD26 /// SNORD27 /// SNORD28 /// SNORD29 /// SNORD31 / Fold change (Aza/veh), C12orf56 (ProbeSet 11735607_a_at) / Fold change (ACY-1035/veh), C12orf56 (ProbeSet 11735607_a_at) / Fold change (Aza/veh), FGFR1OP (ProbeSet 11751329_s_at) / Fold change (ACY-1035/veh), FGFR1OP (ProbeSet 11751329_s_at) / Fold change (Aza/veh), VPS36 (ProbeSet 11739960_a_at) / Fold change (ACY-1035/veh), VPS36 (ProbeSet 11739960_a_at) / RFU SYPL1 (11715823_x_at) / Fold change /veh SYPL1 (11715823_x_at) / RFU IGFBP7 (11715501_s_at) / Fold change /veh IGFBP7 (11715501_s_at) / RFU REEP3 (11722064_at) / Fold change /veh REEP3 (11722064_at) / RFU IGLL1 (11728026_x_at) / Fold change /veh IGLL1 (11728026_x_at): dose or concentration left out as unconfirmed
Conditions: MV-4-11 cells, 48 hours

**Q.** With `Nc1ccc(-c2cccs2)cc1NC(=O)c1ccc2c(c1)cc(C1CC1)n2CCN1CCOCC1` [ACY-1035] as the compound, how does the “RFU CAMK2N1 (11719241_x_at)” value read?
**A.** Its value is 51.25 RFU.
